According to US4740501A (priority 1985, dated 1988):
pIC50: −log10 of the molar value.

Assays:
[1] = system: P HR-1 B-lymphoma; experiment: Tumor cell survival (trypan blue), continuous exposure; format: cell-based, Human
[2] = system: ALL (N cell leukemia); experiment: Survival of fresh human leukemic cells, continuous exposure; format: cell-based; conditions: for % tumor cell survival: ALL
[3] = system: L-1210 leukemia cells; experiment: Tumor cell survival after pulse treatment; format: cell-based, Mouse; conditions: for Percent Tumor Cell Survival: viability 24 hr later
Protocol: All rabbit, marmoset and human lymphoid in vitro cell lines, murine L-1210 leukemia and primary human leukemias were treated at cell concentrations of 6-10×10^5 cells/ml. The tripeptide was added to the cell suspensions to yield final concentrations of 1 to 50 ug/ml. Cultures were treated at 37° C. for periods ranging between 15 min to 24 hr. Following treatment, aliquots were removed and centrifuged at 800 rpm for 9 min, at 5° C. Treatment media were gently aspirated and the lymphoid cells resuspended in fresh growth media and reincubated at 37° C. Culture media were changed daily by gently pelleting the cells and exchanging 60-70% of the spent supernatant with fresh media.
Survival of tumor cell layers or suspensions was ascertained using 0.5% trypan blue in 0.1M phosphate-buffered saline, pH 7.25. Cell layers were released from the Multidish-4 wells with 0.5 ml STV, diluted 2 to 10 fold with the vital strain; tumor cells in suspension cultures were directly mixed 1:1 with the trypan blue dye. Tumor cells were enumerated using a haemocytometer; all 10 fields were counted for every sample. Percent viable cells was determined by direct comparison of the numbers of cells excluding trypan blue in treated cultures to those in untreated or diluent-treated parallel cultures. There were no significant differences in the viability of cells treated with diluent when compared to untreated cells.
To delineate the minimum concentration and duration of the tripeptide compound exposure to induce cytolysis, MJY-alpha and B-16 melanoma cell layers and L-1210 leukemia cell suspensions were exposed to 0.5 to 50 ug of the tripeptide compound per ml of solvent for 0.25 to 4 hours. The tripeptide compound was then removed and the cells washed and reincubated in media growth. Tumor cell viability was determined 24 hrs after pulse tripeptide compound exposure. Cell survival of all three tumor cell lines was reduced by an exposure period of as short as 15 min (Table 4). The degree of cytolysis increased with extension of the treatment periods from 15 min to 4 hrs, although the decreases in cell survival were not proportional to the duration of the exposure. […] Comparison of the data in Tables 2 and 4 reveal that cells exposed to the tripeptide compound for one hour were irreversibly damaged when assayed a day later despite their apparent viability immediately after treatment.
The reversibility of the cancericidal activity of the tripeptide compounds on L-1210 leukemia, MJY-alpha mammary tumor and B-16 melanoma cells was also monitored in the nonhostile tissue culture environment. Cell suspensions of these tumor models were treated with tripeptide for 15 to 240 min, washed and either inoculated into mice or maintained as suspension (L-1210) or monolayer cultures (MJY-alpha and B-16). Reductions in tumor cells survival were negligible (0-6%) in all three tumor systems at initiation of in vitro cultures following treatment with 50 ug tripeptide/ml for as long as 4 hrs. However, significant decreases in cellular viabilities of L-1210 leukemia (FIG. 9), MJY-alpha mammary tumor (FIG. 10) and B-16 melanoma (FIG. 11) tumor cells were observed 24 hr following tripeptide exposure and for the next 6 days.

[4] = system: L1210/L-PAM leukemia; experiment: cells; format: cell-based, mice
[5] = system: MJY-alpha monolayers; experiment: Incorporation of radiolabeled precursors; format: cell-based
Protocol: The metabolism of treated MJY-alpha mammary tumor cell cultures were screened by monitoring the uptake and incorporation of 3H-uridine, 3H-thymidine, and 35S-methionine. Cultures were treated as described and given radiolabeled precursors in treatment medium at 0-24 for 24 to 48 hours during the treatment periods.
Levels of radioactivity incorporated into the cells were determined following harvesting of the cells on glass filters using a Mash II cell harvester. Each sample was examined in quadruplicate.
In addition to determining cellular viability by trypan blue exclusion, the levels of metabolic activity of PTT.119-treated cells were compared to solvent-treated and untreated controls. Confluent MJY-alpha monolayers were again processed as previously described and […], […], ^3 H-thymidine, and ^35 S-methionine incorporation quantitated during the 24 and 48 hour treatment periods. Following 24 hour tripeptide treatment, the only parameter that was substantially depressed compared to control cultures was the incorporation of ^35 S-radioactivity into cells treated with 15 uM PTT.119 (Table 10).

In the case of `CCOC(=O)[C@H](CCSC)NC(=O)[C@H](Cc1cccc(N(CCCl)CCCl)c1)NC(=O)[C@@H](N)Cc1ccc(F)cc1.Cl` [PTT.119, 3-(p-fluorophenyl)-L-alanyl-3-[m-bis(2-chloroethyl)aminophenyl]-L-alanyl-L-methionine ethyl ester hydrochloride], the “% tumor cell survival” value ([1]; 10 ug/ml, 1 hr) was 96%, the “% tumor cell survival” value ([1]; 10 ug/ml, 4 hr) was 91% and the “% tumor cell survival” value ([1]; 10 ug/ml, 24 hr) was 75%. For the same compound, the “% tumor cell survival” value ([1]; 25 ug/ml, 1 hr) was 92%, the “% tumor cell survival” value ([1]; 25 ug/ml, 4 hr) was 86% and the “% tumor cell survival” value ([1]; 25 ug/ml, 24 hr) was 69%. For the same compound, the “% tumor cell survival” value ([1]; 50 ug/ml, 1 hr) was 93%, the “% tumor cell survival” value ([1]; 50 ug/ml, 4 hr) was 75% and the “% tumor cell survival” value ([1]; 50 ug/ml, 24 hr) was 60%. The “reduction of cell survival” value ([2]; ALL lymphoblasts, as low as 1 ug) was 75%, the “% tumor cell survival” value ([2]; 1 ug/ml, 1 hr) was 98% and the “% tumor cell survival” value ([2]; 1 ug/ml, 4 hr) was 76%. The “% tumor cell survival” value ([2]; 1 ug/ml, 24 hr) was 25%, the “% tumor cell survival” value ([2]; 5 ug/ml, 1 hr) was 46% and the “% tumor cell survival” value ([2]; 5 ug/ml, 4 hr) was 29%. For the same compound, the “% tumor cell survival” value ([2]; 5 ug/ml, 24 hr) was 7%, the “% tumor cell survival” value ([2]; 10 ug/ml, 1 hr) was 32% and the “% tumor cell survival” value ([2]; 10 ug/ml, 4 hr) was 15%. For the same compound, the “% tumor cell survival” value ([2]; 10 ug/ml, 24 hr) was 0%, the “% tumor cell survival” value ([2]; 25 ug/ml, 1 hr) was 15% and the “% tumor cell survival” value ([2]; 25 ug/ml, 4 hr) was 15%. The “% tumor cell survival” value ([2]; 25 ug/ml, 24 hr) was 0%, the “% tumor cell survival” value ([2]; 50 ug/ml, 1 hr) was 0% and the “% tumor cell survival” value ([2]; 50 ug/ml, 4 hr) was 0%. The “% tumor cell survival” value ([2]; 50 ug/ml, 24 hr) was 0%, the “Percent Tumor Cell Survival” value ([3]; L-1210, 1 ug/ml, pulse 1 hr) was 83% and the “Percent Tumor Cell Survival” value ([3]; L-1210, 1 ug/ml, pulse 2 hr) was 78%. The “Percent Tumor Cell Survival” value ([3]; L-1210, 1 ug/ml, pulse 4 hr) was 45%, the “Percent Tumor Cell Survival” value ([3]; L-1210, 1 ug/ml, pulse .25 hr) was 80% and the “Percent Tumor Cell Survival” value ([3]; L-1210, 1 ug/ml, pulse .5 hr) was 87%. For the same compound, the “Percent Tumor Cell Survival” value ([3]; L-1210, 5 ug/ml, pulse 1 hr) was 61%, the “Percent Tumor Cell Survival” value ([3]; L-1210, 5 ug/ml, pulse 2 hr) was 57% and the “Percent Tumor Cell Survival” value ([3]; L-1210, 5 ug/ml, pulse 4 hr) was 35%. The “Percent Tumor Cell Survival” value ([3]; L-1210, 5 ug/ml, pulse .25 hr) was 72%, the “Percent Tumor Cell Survival” value ([3]; L-1210, 5 ug/ml, pulse .5 hr) was 60% and the “Percent Tumor Cell Survival” value ([3]; L-1210, 10 ug/ml, pulse 1 hr) was 27%. For the same compound, the “Percent Tumor Cell Survival” value ([3]; L-1210, 10 ug/ml, pulse 2 hr) was 31%, the “Percent Tumor Cell Survival” value ([3]; L-1210, 10 ug/ml, pulse 4 hr) was 37% and the “Percent Tumor Cell Survival” value ([3]; L-1210, 10 ug/ml, pulse .25 hr) was 53%. For the same compound, the “Percent Tumor Cell Survival” value ([3]; L-1210, 10 ug/ml, pulse .5 hr) was 40%, the “Percent Tumor Cell Survival” value ([3]; L-1210, 20 ug/ml, pulse 1 hr) was 0% and the “Percent Tumor Cell Survival” value ([3]; L-1210, 20 ug/ml, pulse .25 hr) was 0%. The “Percent Tumor Cell Survival” value ([3]; L-1210, 20 ug/ml, pulse .5 hr) was 0%, the “Percent Tumor Cell Survival” value ([3]; L-1210, 25 ug/ml, pulse 1 hr) was 0% and the “Percent Tumor Cell Survival” value ([3]; L-1210, 25 ug/ml, pulse 2 hr) was 0%. For the same compound, the “Percent Tumor Cell Survival” value ([3]; L-1210, 25 ug/ml, pulse 4 hr) was 0%, the “Percent Tumor Cell Survival” value ([3]; L-1210, 25 ug/ml, pulse .25 hr) was 20% and the “Percent Tumor Cell Survival” value ([3]; L-1210, 25 ug/ml, pulse .5 hr) was 7%. For the same compound, the “reductions in tumor cell survival at initiation of in vitro cultures” value ([3]; L-1210, 50 ug/ml for as long as 4 hrs (all three tumor systems)) was 0-6%, the “Percent Tumor Cell Survival” value ([3]; L-1210, .5 ug/ml, pulse 1 hr) was 83% and the “Percent Tumor Cell Survival” value ([3]; L-1210, .5 ug/ml, pulse 2 hr) was 94%. The “Percent Tumor Cell Survival” value ([3]; L-1210, .5 ug/ml, pulse 4 hr) was 68%, the “Percent Tumor Cell Survival” value ([3]; L-1210, .5 ug/ml, pulse .25 hr) was 95% and the “Percent Tumor Cell Survival” value ([3]; L-1210, .5 ug/ml, pulse .5 hr) was 90%. For the same compound, the “L-1210 cells destroyed compared to mammary tumor and melanoma cells” value ([3]; any given concentration, 30 min or 1 hr pulse, 5 days) was “approximately 5 times”, the T.C.D.100 [4] was 30.0 and the “surviving fraction at end of examination period” value [4] was 0.8-3%. For the same compound, the “percentage of viable cells” value ([4]; 3.75 µM) was 40-50%, the pIC50 ([4]; Mus musculus, L1210/LPAM, 24 h, read-out: T.C.D.50) was 5.52 and the “Relative level of incorporation of radiolabels (%)” value (“Relative level … (%)” below) ([5]; 1.5 uM, 24 hours, 3H-thy) was 91.2%. The “Relative level … (%)” value ([5]; 1.5 uM, 24 hours, 3H-ur) was 90.9%, the “Relative level … (%)” value ([5]; 1.5 uM, 24 hours, 35S-met) was 103.3% and the “Relative level … (%)” value ([5]; 1.5 uM, 48 hours, 3H-thy) was 118.1%. The “Relative level … (%)” value ([5]; 1.5 uM, 48 hours, 3H-ur) was 103.4%, the “Relative level … (%)” value ([5]; 1.5 uM, 48 hours, 35S-met) was 96.1% and the “Relative level … (%)” value ([5]; 7.5 uM, 24 hours, 3H-thy) was 99.0%. For the same compound, the “Relative level … (%)” value ([5]; 7.5 uM, 24 hours, 3H-ur) was 100.6%, the “Relative level … (%)” value ([5]; 7.5 uM, 24 hours, 35S-met) was 97.2% and the “Relative level … (%)” value ([5]; 7.5 uM, 48 hours, 3H-thy) was 83.1%. For the same compound, the “Relative level … (%)” value ([5]; 7.5 uM, 48 hours, 3H-ur) was 108.6%, the “Relative level … (%)” value ([5]; 7.5 uM, 48 hours, 35S-met) was 89.9% and the “depression of 3H-thymidine incorporation” value ([5]; 7.5 uM, second day of treatment) was 17%. For the same compound, the “Relative level … (%)” value ([5]; 15.0 uM, 24 hours, 3H-thy) was 103.6%, the “Relative level … (%)” value ([5]; 15.0 uM, 24 hours, 3H-ur) was 100.1% and the “Relative level … (%)” value ([5]; 15.0 uM, 24 hours, 35S-met) was 82.7%. For the same compound, the “Relative level … (%)” value ([5]; 15.0 uM, 48 hours, 3H-thy) was 82.9%, the “Relative level … (%)” value ([5]; 15.0 uM, 48 hours, 3H-ur) was 80.5% and the “Relative level … (%)” value ([5]; 15.0 uM, 48 hours, 35S-met) was 80.4%. The “reductions in levels of cell-associated radioactivity, all three precursors” value ([5]; 15 uM, second day of treatment) was 20%.
